Measured values published in BigSolDB 2.1.

OC[C@H]1O[C@@H](Oc2ccc(O)cc2)[C@H](O)[C@@H](O)[C@@H]1O
solubility (mole fraction)
Details | 283.15 K | 288.15 K | 293.15 K | 298.15 K | 303.15 K | 308.15 K | 313.15 K | 318.15 K | 323.15 K
in 2-butanone | 0.000188 | 0.000212 | 0.000243 | 0.00026 | 0.000297 | 0.000346 | 0.000418 | 0.00045 | 0.000524
in acetone | 0.000686 | 0.00071 | 0.000773 | 0.000799 | 0.000867 | 0.00101 | 0.00118 | 0.00127 | 0.00143
in acetonitrile | 8.17e-05 | 9.3e-05 | 0.000124 | 0.000149 | 0.000163 | 0.000211 | 0.000236 | 0.000318 | 0.000362
in ethanol | 0.00263 | 0.00268 | 0.0029 | 0.00309 | 0.00353 | 0.00419 | 0.00477 | 0.00551 | 0.0059
in ethyl acetate | 8.03e-05 | 8.14e-05 | 8.6e-05 | 9.09e-05 | 9.62e-05 | 0.000104 | 0.000112 | 0.000124 | 0.000156
in ethylene glycol | 0.0471 | 0.0486 | 0.0507 | 0.0527 | 0.0549 | 0.0572 | 0.0601 | 0.0631 | 0.0666
in isobutanol | 0.000225 | 0.000279 | 0.000303 | 0.000394 | 0.000454 | 0.000572 | 0.000668 | 0.000911 | 0.00104
in isopropanol | 0.000727 | 0.000858 | 0.0009 | 0.00108 | 0.00125 | 0.0016 | 0.00191 | 0.00216 | 0.00261
in methanol | 0.0113 | 0.0117 | 0.0123 | 0.0132 | 0.0143 | 0.016 | 0.0176 | 0.0191 | 0.0221
in methyl acetate | 0.000112 | 0.000129 | 0.00014 | 0.000154 | 0.000185 | 0.000239 | 0.000277 | 0.000353 | 0.00041
in n-butanol | 0.000376 | 0.000499 | 0.000566 | 0.000699 | 0.00075 | 0.001 | 0.00115 | 0.00131 | 0.00144
in n-propanol | 0.000764 | 0.000889 | 0.00103 | 0.00115 | 0.00128 | 0.00155 | 0.00181 | 0.00207 | 0.0023
